# Values quoted from earlier work, collected in US20070043054A1, “Enzyme cofactor combination for supplementing pyruvate dehydrogenase and alpha ketogluterate dehydrogenase complexes” (priority 2004, published 2007).
# Key:
# [1] = for stability in aqueous solution: neutral or alkaline solutions
solubility in water,solubility in alkali (alkali),solubility in organic solvents (organic solvents),temperature up to which the dry form is stable ([1]; dry form),Compound,stability in aqueous solution [1],stability to dry heat [1]
soluble in water and ethanol,–,–,–,NC(=O)c1cccnc1 [Niacinamide],stable for a short period when autoclaved,–
very slightly soluble in water,soluble in alkali,insoluble in most organic solvents,–,Cc1cc2nc3c(=O)[nH]c(=O)nc-3n(C[C@H](O)[C@H](O)[C@H](O)CO)c2cc1C [Riboflavin],stable to oxidizing agents in strong mineral acids and in neutral aqueous solution,stable to dry heat
–,–,–,about 60 °C,O=C(O)c1cccnc1 [niacin],–,–

Compound,solubility in water,solubility in alkali (alkali),solubility in organic solvents (organic solvents),temperature up to which the dry form is stable ([1]; dry form),stability in aqueous solution [1],stability to dry heat [1]
Cc1ncc(C[n+]2csc(CCO)c2C)c(N)n1 [Thiamine],water-soluble,–,–,–,rapidly broken down in neutral or alkaline solutions,comparatively stable to dry heat
